Earlier results, collected in paper PMC2667333 (Molecular cell, 2009).

Test system: calcineurin (CN)
Details: ref Swanson et al., 1992; Yin and Ochs, 2003

## C=CC[C@@H]1/C=C(\C)C[C@H](C)C[C@H](OC)[C@H]2O[C@@](O)(C(=O)C(=O)N3CCCC[C@H]3C(=O)O[C@H](/C(C)=C/[C@@H]3CC[C@@H](O)[C@H](OC)C3)[C@H](C)[C@@H](O)CC1=O)[C@H](C)C[C@@H]2OC [FK506]
  effect on CN-mediated pNPP dephosphorylation: increase CN-mediated pNPP dephosphorylation

## cyclosporin A [CsA]
  effect on CN-mediated pNPP dephosphorylation: increase CN-mediated pNPP dephosphorylation
